Tests used:
Assay in all cases: biochemical
[1] = biological target: T1, Nuclear receptor ROR-gamma (Homo sapiens, UniProt P51449)
T1 sequence (P51449 whole entry): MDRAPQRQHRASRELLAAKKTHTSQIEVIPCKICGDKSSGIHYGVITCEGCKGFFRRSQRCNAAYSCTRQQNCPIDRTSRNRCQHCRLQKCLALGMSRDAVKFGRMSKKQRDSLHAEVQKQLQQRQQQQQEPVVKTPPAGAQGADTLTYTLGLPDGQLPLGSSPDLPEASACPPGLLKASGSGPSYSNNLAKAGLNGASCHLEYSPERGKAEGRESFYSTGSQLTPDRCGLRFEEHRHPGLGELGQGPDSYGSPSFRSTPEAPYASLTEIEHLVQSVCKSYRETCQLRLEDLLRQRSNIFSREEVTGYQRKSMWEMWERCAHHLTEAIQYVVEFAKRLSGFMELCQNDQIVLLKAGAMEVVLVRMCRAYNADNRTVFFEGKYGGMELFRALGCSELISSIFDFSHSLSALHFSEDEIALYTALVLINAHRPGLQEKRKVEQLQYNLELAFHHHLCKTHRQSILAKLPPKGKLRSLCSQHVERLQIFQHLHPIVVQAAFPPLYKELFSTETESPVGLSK
Description: Allosteric inhibition of N-terminal his6-tagged human recombinant RORgamma LBD (261 to 518 residues) expressed in Sf9 insect cells assessed as inhibition constant incubated for 30 mins by fluorescence polarization assay

[2] = biological target: T1, Nuclear receptor ROR-gamma; remark: listed apart in the source
Description: Allosteric inhibition of N-terminal his6-tagged human recombinant RORgamma LBD (261 to 518 residues) expressed in Sf9 insect cells incubated for 30 mins by fluorescence polarization assay

[3] = biological target: T1, Nuclear receptor ROR-gamma; remark: listed apart in the source
Description: Binding affinity to N-terminal his6-tagged human recombinant RORgamma LBD (261 to 518 residues) expressed in Sf9 insect cells assessed as dissociation constant by SPR analysis

[4] = biological target: T1, Nuclear receptor ROR-gamma; remark: listed apart in the source
Description: Binding affinity to N-terminal his6-tagged human recombinant RORgamma LBD (261 to 518 residues) expressed in Sf9 insect cells assessed as dissociation constant incubated for 30 mins by fluorescence polarization assay

SMILES	Ki [1]	IC50 [2]	Kd [3]	Kd [4]
O=C(O)c1ccc(-n2cc(C(=O)c3c(Cl)cccc3Cl)c3ccccc32)cc1	0.005 µM	0.009 µM	–	–
O=C(O)c1ccc(-n2cc(C(=O)c3c(Cl)cccc3C(F)(F)F)c3ccccc32)s1	0.91 µM	1.7 µM	–	–
Cc1csc(-n2cc(C(=O)c3c(Cl)cccc3Cl)c3ccccc32)c1	–	> 1000 µM	–	–
Cc1ccc(C(=O)c2cn(-c3ccc(C(=O)O)s3)c3ccccc23)cc1	42.7 µM	79.9 µM	–	–
Cc1cc(-n2cc(C(=O)c3c(Cl)cccc3Cl)c3ccccc32)sc1C(=O)O	1.7 µM	3.1 µM	–	–
O=C(O)c1ccc(-c2nn(C(=O)c3ccccc3)c3ccccc23)cc1	1.11 µM	–	–	–
Cc1cccc(C(=O)c2cn(-c3ccc(C(=O)O)s3)c3ccccc23)c1	79.8 µM	149 µM	–	–
O=C(O)c1ccc(-n2cc(C(=O)c3cccc(Cl)c3)c3ccccc32)s1	15.2 µM	28.5 µM	–	–
O=C(O)c1ccc(-n2cc(C(=O)c3ccccc3)c3ccccc32)s1	102 µM	19.3 µM	–	–
O=C(O)c1ccc(-c2nn(C(=O)c3c(Cl)cccc3C(F)(F)F)c3cc(C(=O)NCCOCCOCCNC(=S)Nc4ccc5c(c4)C(=O)OC54c5ccc(O)cc5Oc5cc(O)ccc54)ccc23)cc1	–	–	0.28 µM	0.0517 µM
Cc1ccccc1C(=O)c1cn(-c2ccc(C(=O)O)s2)c2ccccc12	17.6 µM	33 µM	–	–
O=C(O)c1ccc(-n2cc(C(=O)c3ccc(Cl)cc3)c3ccccc32)s1	21.3 µM	39.9 µM	–	–
O=C(O)c1ccc(-n2cc(C(=O)c3c(Cl)cccc3Cl)c3ccccc32)s1	0.51 µM	0.95 µM	–	–
O=C(O)c1ccc(-n2cc(C(=O)c3ccccc3Cl)c3ccccc32)s1	7.2 µM	13.5 µM	–	–

Reference: ChEMBL document CHEMBL5528080, “Discovery of RORγ Allosteric Fluorescent Probes and Their Application: Fluorescence Polarization, Screening, and Bioimaging” (J Med Chem, 2024)
